Experimental data published in ChEMBL document CHEMBL1131818, “Novel quinolinequinone antitumor agents: structure-metabolism studies with NAD(P)H:quinone oxidoreductase (NQO1)” (Bioorg Med Chem Lett, 1999).

Test: Metabolism by recombinant human NAD(P)H:quinone oxidoreductase (NQO1) was evaluated
Assay type: ADME

Row | NADH oxidation | Structure (SMILES)
1 | 47.4 µM/min/mg | COC1=C(N)C(=O)c2nc(-c3nc(C(=O)O)c(C)c(-c4ccc(OC)c(OC)c4O)c3N)ccc2C1=O [STREPTONIGRIN]
2 | 26.2 µM/min/mg | O=C1C(N2CCCC2)=CC(=O)c2ncccc21
3 | 14 µM/min/mg | COC1=CC(=O)c2nc(-c3ccc4ccccc4c3)ccc2C1=O
4 | 28.8 µM/min/mg | COC1=CC(=O)c2nc(-c3ccccc3)ccc2C1=O
5 | 19.2 µM/min/mg | COC1=CC(=O)c2nc(-c3ccc(C)cc3)ccc2C1=O
6 | 58.7 µM/min/mg | COC1=CC(=O)c2ncccc2C1=O
7 | 45.7 µM/min/mg | COC1=CC(=O)c2nc(-c3ccc(C)cn3)ccc2C1=O
8 | 100 µM/min/mg | COC1=CC(=O)c2nc(Cl)ccc2C1=O
9 | 25.1 µM/min/mg | COC1=CC(=O)c2nc(-c3cccc4ccccc34)ccc2C1=O
10 | 5.31 µM/min/mg | COC1=CC(=O)c2c(cc(C)n2C)C1=O
11 | 32.1 µM/min/mg | COC1=CC(=O)c2nc(-c3cccs3)ccc2C1=O
12 | 4.75 µM/min/mg | COC1=CC(=O)c2nc(-c3ccc(-c4ccccc4)cc3)ccc2C1=O
13 | 33.3 µM/min/mg | COC1=CC(=O)c2nc(-c3cc4ccccc4o3)ccc2C1=O
14 | 50.5 µM/min/mg | COC1=CC(=O)c2nc(-c3ccccn3)ccc2C1=O
